Data taken from patent publication US10689362B2, “Quinoxaline compounds as type III receptor tyrosine kinase inhibitors” (Development Center for Biotechnology, priority 2016, dated 2020).
pIC50: −log10 of the molar value.

Key:
[1] = molecular target: CSF-1R kinase (Homo sapiens (Human), UniProt P07333); test: CSF-1R kinase assay (AlphaScreen); assay type: biochemical; conditions: class symbol
Protocol: Inhibition of CSF-1R kinase activity by a test compound disclosed herein was estimated by AlphaScreen (PerkinElmer). […] Reactions were incubated at 30° C. for 45 min and stopped by adding 5 μL of 50 mM EDTA. Analysis of resulting product using an AlphaScreen kit, and counted with Enspire Alpha (PerkinElmer). […] The IC50 values of quinoxaline compounds of this invention against CSF-1R kinase were determined using the GraphPad Prism 5 software.

[2] = molecular target: c-KIT kinase (Homo sapiens (Human), UniProt P10721); test: c-KIT kinase assay (radiometric); assay type: biochemical
Outline: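 Recombinant c-Kit (20 ng) with 2 μg Poly-(Glu4:Tyr1) in MOPS pH 7.0 buffer with MgCl2/MnCl2, 10 μM ATP plus [^33P]-ATP, 4% DMSO final, 60 min at 30° C. Stopped with phosphoric acid, filter-captured and scintillation counted; IC50 from curve fit.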

[3] = molecular target: FLT3 kinase (Homo sapiens (Human), UniProt P36888); test: FLT3 kinase assay (radiometric); assay type: biochemical; conditions: bound
Outline: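 Recombinant FLT3 (5 ng) phosphorylating poly(Glu4:Tyr1) (2 μg) with 10 μM ATP plus [^33P]-ATP in MOPS pH 7.0 buffer, 4% DMSO final, 60 min at 30° C. Reaction stopped with phosphoric acid, filter-captured and scintillation-counted; IC50 derived from dose-response.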

[4] = molecular target: PDGFRβ kinase (Homo sapiens (Human), UniProt P09619); test: PDGFRβ kinase assay (radiometric); assay type: biochemical
Outline: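 Radiometric assay: recombinant PDGFRβ with poly(Glu4:Tyr1) in MOPS pH 7.0 buffer containing Mg2+/Mn2+, 10 μM ATP plus [33P]-ATP, and compound at 4% DMSO final. Incubated 60 min at 30° C, stopped with phosphoric acid, filter-captured and scintillation-counted. IC50 from curve fitting.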

[5] = tested on: CSF-1-dependent M-NFS-60 mouse myeloid leukemia cell; test: M-NFS-60 cell proliferation assay (CellTiter-96); assay type: cell-based; conditions: Cytotoxicity, M-NFS-60 cells, 72 hours
Outline: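 Growth inhibition was measured as absorbance at 490 nm after 4 h with CellTiter 96 AQueous One reagent. Beforehand, M-NFS-60 cells (2000/well, CSF-1-dependent) were treated with a compound dilution series for 72 h following overnight plating at 37 °C, 5% CO2.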

[6] = tested on: MV4-11 human acute myeloid leukemia cell with FLT3-ITD mutation; test: MV4-11 cell proliferation assay (CellTiter-96); assay type: cell-based; conditions: Cytotoxicity, MV4-11 cells, 72 hours
Outline: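 Growth inhibition read as absorbance at 490 nm after 4 hours with CellTiter96 AQueous One reagent. Before that, FLT3-ITD-dependent MV4-11 cells (6500 cells/well, overnight at 37° C., 5% CO2) received a rising compound concentration series for 72 hours.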

[7] = tested on: Kasumi-1 human acute myeloid leukemia cell with c-KIT N822K activating mutation; test: Kasumi-1 cell proliferation assay (CellTiter-96); assay type: cell-based; conditions: Cytotoxicity, Kasumi-1 cells, 72 hours
Outline: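 After 72 h of treatment with a compound dilution series, growth of c-KIT N822K-driven Kasumi-1 cells (64000 per well, plated the day before) was read as 490 nm absorbance. This followed a 4 h incubation with CellTiter96 AQueous One reagent.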

[8] = tested on: THP-1 human acute monocytic leukemia cell harboring NRAS G12D mutation; test: THP-1 cell proliferation assay (counter screen, CellTiter-96); assay type: cell-based; conditions: Cytotoxicity, THP-1 cells (counter screen), 72 hours
Outline: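 Growth inhibition read as 490 nm absorbance after 4 h with CellTiter96 AQueous One reagent, following 72 h compound exposure at rising concentrations. THP-1 (NRAS G12D) cells plated at 5000 per well and left overnight at 37 °C, 5% CO2 before dosing.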

[9] = tested on: osteoclast precursors (osteoclast differentiation); test: Osteoclast tartrate-resistant acid phosphatase assay; assay type: cell-based; conditions: 168 h, at 1 μM treatment, 7 days, RANKL and M-CSF, read-out: inhibition activity against osteoclast differentiation
Protocol: A serial dilution of test compound was dispensed into a 96-well black clear bottom plate. Compound was diluted by the addition of DMEM media supplemented with 10% characterized fetal bovine serum. Diluted compound was transferred to a 96-well black clear bottom plate. Three thousand osteoclast precursors (Lonza, Walkersville, Md.) were added per well in growth medium containing Receptor Activator of Nuclear Factor Kappa-beta ligand (RANKL) and M-CSF. […] At the end of the incubation period, 50 μL of supernatant from each well was transferred to a clear 96-well plate. Tartrate-resistant acid phosphatase activity in the supernatant samples was determined using an acid phosphatase assay kit (Sigma, St. Louis, Mo.). Absorbance was measured at 550 nm using a plate reader. […] The Inhibition activity against osteoclast differentiation for each compound at 1 μM treatment in duplicate was measured.

Sequence of PDGFRβ kinase (P09619 33-1106): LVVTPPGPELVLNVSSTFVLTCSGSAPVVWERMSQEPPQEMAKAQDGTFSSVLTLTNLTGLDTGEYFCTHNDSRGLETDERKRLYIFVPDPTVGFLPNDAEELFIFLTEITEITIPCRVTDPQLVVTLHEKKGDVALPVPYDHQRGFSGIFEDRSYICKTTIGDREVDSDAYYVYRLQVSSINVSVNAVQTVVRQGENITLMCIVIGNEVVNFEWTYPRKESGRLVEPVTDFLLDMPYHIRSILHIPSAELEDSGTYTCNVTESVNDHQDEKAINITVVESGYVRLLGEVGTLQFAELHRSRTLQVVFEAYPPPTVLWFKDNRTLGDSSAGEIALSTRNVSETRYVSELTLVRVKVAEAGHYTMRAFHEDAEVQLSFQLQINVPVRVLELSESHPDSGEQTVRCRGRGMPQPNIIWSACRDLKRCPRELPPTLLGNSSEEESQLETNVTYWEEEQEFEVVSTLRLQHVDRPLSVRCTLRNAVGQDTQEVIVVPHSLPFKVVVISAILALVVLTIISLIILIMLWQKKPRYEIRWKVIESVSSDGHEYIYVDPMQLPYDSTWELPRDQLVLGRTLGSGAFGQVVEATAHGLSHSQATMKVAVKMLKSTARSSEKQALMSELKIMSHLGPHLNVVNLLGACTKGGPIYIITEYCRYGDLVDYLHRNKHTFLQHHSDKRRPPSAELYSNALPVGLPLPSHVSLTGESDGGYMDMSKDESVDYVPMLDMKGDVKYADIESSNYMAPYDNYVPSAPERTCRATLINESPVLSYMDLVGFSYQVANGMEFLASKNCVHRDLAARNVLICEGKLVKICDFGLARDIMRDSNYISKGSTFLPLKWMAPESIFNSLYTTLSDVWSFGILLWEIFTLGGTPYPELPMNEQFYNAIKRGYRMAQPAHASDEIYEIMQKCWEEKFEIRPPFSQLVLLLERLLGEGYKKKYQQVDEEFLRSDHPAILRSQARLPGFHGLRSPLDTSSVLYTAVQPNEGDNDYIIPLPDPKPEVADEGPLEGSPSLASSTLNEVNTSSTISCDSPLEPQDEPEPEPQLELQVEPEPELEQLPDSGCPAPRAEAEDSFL
Sequence of FLT3 kinase (P36888 27-993): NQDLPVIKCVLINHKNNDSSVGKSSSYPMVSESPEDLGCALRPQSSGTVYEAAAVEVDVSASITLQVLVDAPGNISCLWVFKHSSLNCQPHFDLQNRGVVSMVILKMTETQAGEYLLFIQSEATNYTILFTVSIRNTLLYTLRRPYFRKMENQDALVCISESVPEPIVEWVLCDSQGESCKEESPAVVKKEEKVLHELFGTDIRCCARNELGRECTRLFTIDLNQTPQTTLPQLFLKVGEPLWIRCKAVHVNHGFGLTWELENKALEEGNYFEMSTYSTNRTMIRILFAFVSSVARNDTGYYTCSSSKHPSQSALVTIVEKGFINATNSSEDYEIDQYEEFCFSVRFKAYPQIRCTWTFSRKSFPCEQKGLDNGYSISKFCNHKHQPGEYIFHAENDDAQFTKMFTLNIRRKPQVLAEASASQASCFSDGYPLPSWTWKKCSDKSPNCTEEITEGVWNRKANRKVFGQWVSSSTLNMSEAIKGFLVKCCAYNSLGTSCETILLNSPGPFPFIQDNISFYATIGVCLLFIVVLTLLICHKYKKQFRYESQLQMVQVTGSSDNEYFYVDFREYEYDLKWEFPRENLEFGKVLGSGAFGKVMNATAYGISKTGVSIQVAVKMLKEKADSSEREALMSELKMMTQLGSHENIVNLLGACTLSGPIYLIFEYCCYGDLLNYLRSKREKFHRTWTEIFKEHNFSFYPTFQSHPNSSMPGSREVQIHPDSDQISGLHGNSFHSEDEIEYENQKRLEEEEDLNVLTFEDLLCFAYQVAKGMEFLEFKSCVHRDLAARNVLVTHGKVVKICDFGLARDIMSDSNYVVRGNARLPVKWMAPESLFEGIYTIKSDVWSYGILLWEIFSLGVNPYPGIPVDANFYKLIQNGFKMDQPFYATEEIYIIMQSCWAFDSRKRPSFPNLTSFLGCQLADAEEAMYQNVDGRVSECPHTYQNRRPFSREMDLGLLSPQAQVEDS
Sequence of CSF-1R kinase (P07333 20-972): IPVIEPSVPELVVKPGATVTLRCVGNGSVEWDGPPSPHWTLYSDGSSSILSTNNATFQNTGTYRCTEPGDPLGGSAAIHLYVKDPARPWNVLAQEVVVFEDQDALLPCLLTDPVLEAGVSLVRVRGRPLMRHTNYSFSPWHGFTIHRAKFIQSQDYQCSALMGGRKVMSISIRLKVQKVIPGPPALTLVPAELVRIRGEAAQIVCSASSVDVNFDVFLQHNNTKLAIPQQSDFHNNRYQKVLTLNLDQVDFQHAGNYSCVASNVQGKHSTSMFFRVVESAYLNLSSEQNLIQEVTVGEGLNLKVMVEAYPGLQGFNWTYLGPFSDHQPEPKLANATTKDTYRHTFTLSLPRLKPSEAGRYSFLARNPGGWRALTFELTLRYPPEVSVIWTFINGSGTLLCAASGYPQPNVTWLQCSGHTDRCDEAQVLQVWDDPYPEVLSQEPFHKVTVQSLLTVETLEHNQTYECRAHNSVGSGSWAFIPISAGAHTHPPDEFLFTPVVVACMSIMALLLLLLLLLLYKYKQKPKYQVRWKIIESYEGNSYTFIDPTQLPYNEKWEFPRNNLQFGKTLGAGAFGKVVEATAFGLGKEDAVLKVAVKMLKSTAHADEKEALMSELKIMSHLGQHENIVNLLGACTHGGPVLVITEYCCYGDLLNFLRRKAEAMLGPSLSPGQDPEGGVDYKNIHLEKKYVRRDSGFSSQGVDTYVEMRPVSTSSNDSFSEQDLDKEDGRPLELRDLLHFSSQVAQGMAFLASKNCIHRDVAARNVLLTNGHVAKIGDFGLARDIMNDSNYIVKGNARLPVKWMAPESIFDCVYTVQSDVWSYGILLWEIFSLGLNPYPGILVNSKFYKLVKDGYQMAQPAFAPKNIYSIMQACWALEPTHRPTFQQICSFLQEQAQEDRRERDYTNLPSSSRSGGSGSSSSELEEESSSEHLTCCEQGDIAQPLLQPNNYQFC
Sequence of c-KIT kinase (P10721 26-976): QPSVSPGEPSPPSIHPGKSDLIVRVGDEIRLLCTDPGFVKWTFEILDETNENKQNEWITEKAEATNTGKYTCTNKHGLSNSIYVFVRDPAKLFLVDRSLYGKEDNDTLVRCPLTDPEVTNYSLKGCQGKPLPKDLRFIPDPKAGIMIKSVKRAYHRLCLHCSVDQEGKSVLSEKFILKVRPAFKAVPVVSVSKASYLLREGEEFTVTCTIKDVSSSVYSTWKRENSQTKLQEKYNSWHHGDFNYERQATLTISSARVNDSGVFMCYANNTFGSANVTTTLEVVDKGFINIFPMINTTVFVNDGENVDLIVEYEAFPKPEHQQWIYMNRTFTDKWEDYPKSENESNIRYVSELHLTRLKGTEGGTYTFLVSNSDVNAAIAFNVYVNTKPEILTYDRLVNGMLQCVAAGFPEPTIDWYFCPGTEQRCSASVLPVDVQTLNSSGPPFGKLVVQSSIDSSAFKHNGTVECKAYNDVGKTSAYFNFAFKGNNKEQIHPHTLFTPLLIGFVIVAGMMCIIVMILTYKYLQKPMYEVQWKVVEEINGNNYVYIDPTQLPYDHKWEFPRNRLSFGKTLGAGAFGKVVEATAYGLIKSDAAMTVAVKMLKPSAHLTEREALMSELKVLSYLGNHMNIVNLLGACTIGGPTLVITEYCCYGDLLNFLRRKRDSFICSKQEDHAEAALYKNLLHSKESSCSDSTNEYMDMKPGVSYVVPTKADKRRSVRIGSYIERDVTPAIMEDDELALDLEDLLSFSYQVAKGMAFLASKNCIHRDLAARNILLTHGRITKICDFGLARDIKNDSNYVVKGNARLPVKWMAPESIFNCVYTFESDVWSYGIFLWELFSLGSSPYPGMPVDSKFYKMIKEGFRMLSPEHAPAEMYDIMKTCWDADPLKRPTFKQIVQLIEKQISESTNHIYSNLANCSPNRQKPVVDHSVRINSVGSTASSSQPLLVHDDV

SMILES	pIC50 [1]	pIC50 ([2]; class symbol)	pIC50 [3]	pIC50 ([4]; bound)	pIC50 [5]	pIC50 [6]	pIC50 [7]	pIC50 [8]	inhibition at 1 µM [9]	pIC50 ([2]; bound)	pIC50 ([4]; class symbol)
COc1ccc(COc2ccc(Nc3ccc4ncc(N5CCC5)nc4c3C#N)cc2OC)cn1 [Example 86, 3-(azetidin-1-yl)-6-((3-methoxy-4-((6-methoxpyridin-3-yl)methoxy)phenyl)amino)quinoxaline-5-carbonitrile]	> 7.00	6.52 to 7.00	< 6.00	< 6.00	> 6.52	< 5.00	5.00 to 6.00	< 5.00	> 50%		
COc1cc(Nc2ccc3ncc(N4CCN(C)CC4)nc3c2C#N)ccc1OCc1cccc(C#N)c1 [Example 78, 6-((4-((3-cyanobenzyl)oxy)-3-methoxyphenyl)amino)-3-(4-methylpiperazin-1-yl)quinoxaline-5-carbonitrile]	> 7.00	6.52 to 7.00	< 6.00	< 6.00	> 6.52	< 5.00	6.00 to 6.52	< 5.00	> 50%		
CNc1cnc2ccc(Nc3ccc(OCc4ccc(OC)cc4)c(OC)c3)c(C#N)c2n1 [Example 12, 6-((3-methoxy-4-((4-methoxybenzyl)oxy)phenyl)amino)-3-(methylamino)quinoxaline-5-carbonitrile]	> 7.00	> 7.00	< 6.00	< 6.00	> 6.52	< 5.00	6.00 to 6.52	< 5.00	> 50%		
COc1cc(Nc2ccc3ncc(N4CCOCC4)nc3c2C#N)ccc1OCc1ccc(C(F)F)nc1 [Example 111, 6-((4-((6-(difluoromethyl)pyridin-3-yl)methoxy)-3-methoxyphenyl)amino)-3-morpholinoquinoxaline-5-carbonitrile]	> 7.00	6.52 to 7.00	< 6.00	< 6.00	> 6.52	5.00 to 6.00	6.00 to 6.52	< 5.00	> 50%		
COc1ccc(COc2ccc(Nc3ccc4ncc(N5CCC(C)CC5)nc4c3C#N)cc2OC)cn1 [Example 69, 6-((3-methoxy-4-((6-methoxypyridin-3-yl)methoxy)phenyl)amino)-3-(4-methylpiperidin-1-yl)quinoxaline-5-carbonitrile]	> 7.00		< 6.00	< 6.00	6.00 to 6.52	< 5.00	< 5.00	< 5.00	> 50%	< 6.00	
COc1ccc(COc2ccc(Nc3ccc4ncc(N5CCN(C)CC5)nc4c3C#N)cc2OC)cc1 [Example 31, 6-((3-methoxy-4-((4-methoxybenzyl)oxy)phenyl)amino)-3-(4-methylpiperazin-1-yl)quinoxaline-5-carbonitrile]	> 7.00	> 7.00	< 6.00		> 6.52	5.00 to 6.00	> 6.52	< 5.00	> 50%		6.00 to 6.52
COc1cc(Nc2ccc3ncc(C4CCOCC4)nc3c2C#N)ccc1OCc1ccc(C)nc1 [Example 114, 6-((3-methoxy-4-((6-methylpyridin-3-yl)methoxy)phenyl)amino)-3-(tetrahydro-2H-pyran-4-yl)quinoxaline-5-carbonitrile]	> 7.00	6.00 to 6.52	< 6.00	< 6.00	5.00 to 6.00	5.00 to 6.00	5.00 to 6.00	< 5.00	> 50%		
CCc1ccc(COc2ccc(Nc3ccc4ncc(N5CCOCC5)nc4c3C#N)cc2OC)cn1 [Example 101, 6-((4-((6-ethylpyridin-3-yl)methoxy)-3-methoxyphenyl)amino)-3-morpholinoquinoxaline-5-carbonitrile]	> 7.00	> 7.00	< 6.00	< 6.00	> 6.52	5.00 to 6.00	> 6.52	< 5.00	> 50%		
COc1ccc(COc2ccc(Nc3ccc4ncc(N5CCC(N6CCOCC6)CC5)nc4c3C#N)cc2OC)cn1 [Example 102, 6-((3-methoxy-4-((6-methoxypyridin-3-yl)methoxy)phenyl)amino)-3-(4-morpholinopiperidin-1-yl)quinoxaline-5-carbonitrile]	> 7.00	6.52 to 7.00	< 6.00	< 6.00	> 6.52	< 5.00	> 6.52	< 5.00	> 50%		
COCc1ccc(COc2ccc(Nc3ccc4ncc(N5CCOCC5)nc4c3C#N)cc2OC)cn1 [Example 107, 6-((3-methoxy-4-((6-(methoxymethyl)pyridin-3-yl)methoxy)phenyl)amino)-3-morpholinoquinoxaline-5-carbonitrile]	> 7.00	6.52 to 7.00	< 6.00	< 6.00	> 6.52	5.00 to 6.00	6.00 to 6.52	< 5.00	> 50%		
COc1ccc(COc2ccc(Nc3ccc4ncc(N5CCN(C(C)C)CC5)nc4c3C#N)cc2OC)cc1 [Example 80, 3-(4-isopropylpiperazin-1-yl)-6-((3-methoxy-4-((4-methoxybenzyl)oxy)phenyl)amino)quinoxaline-5-carbonitrile]	> 7.00	> 7.00	< 6.00	< 6.00	> 6.52	5.00 to 6.00	> 6.52	5.00 to 6.00	> 50%		
COc1cc(Nc2ccc3ncc(N4CCOCC4)nc3c2C#N)ccc1OCc1ccc(C)s1 [Example 124, 6-((3-methoxy-4-((5-methylthiophen-2-yl)methoxy)phenyl)amino)-3-morpholinoquinoxaline-5-carbonitrile]	> 7.00	> 7.00	< 6.00	< 6.00	> 6.52	5.00 to 6.00	6.00 to 6.52	5.00 to 6.00	> 50%		
C=C(C)c1cnc2ccc(Nc3ccc(OCc4ccc(OC)cc4)c(OC)c3)cc2n1 [Example 106, N-(3-methoxy-4-((4-methoxybenzyl)oxy)phenyl)-3-(prop-1-en-2-yl)quinoxalin-6-amine]	> 7.00	6.00 to 6.52	< 6.00	< 6.00	6.00 to 6.52	< 5.00	5.00 to 6.00	< 5.00	> 50%		
COc1cc(Nc2ccc3ncc(N4CCOCC4)nc3c2C#N)ccc1OCc1ccc(Cl)cc1 [Example 49, 6-((4-((4-chlorobenzyl)oxy)-3-methoxyphenyl)amino)-3-morpholinoquinoxaline-5-carbonitrile]	> 7.00	> 7.00	< 6.00	< 6.00	> 6.52	5.00 to 6.00	6.00 to 6.52	< 5.00	> 50%		
